In brackets after ≈: the same amount, converted by molar mass. Like-named read-outs stand apart in the source and are kept apart here.
Columns and labels:
[1] = test system: human-pathogenic Plasmodium falciparum strain NF54; test: Growth inhibition of Plasmodium falciparum in vitro, strain NF54 (chloroquine-sensitive), [G-3H]-hypoxanthin incorporation; type: cell-based; conditions: 72 h, read-out: in vitro strain NF 54 IC50 (growth inhibition) (converted)
Protocol: (§1) Test method for the determination of the activity against Plasmodium falciparum in vitro
(§2) The preparations are tested on intraerythrocytary stages of Plasmodium falciparum from asynchronous cultures according to the method of Desjardin et al. (Desjardins, R. E. et al: Quantitative assessment of antimalarial activity in vitro by a semiautomated microdilution technique. Antimicrob. Agents Chemother. 16, 710-718, (1979)).
(§3) The culture medium consists of RPMI 1640 with the addition of 25 mM HEPES, 25 mM NaHCO3, 100 μg/ml neomycin and 10% human serum (A^+). Human-A^+ erythrocytes are used as the Plasmodium falciparum host cells. The parasites are maintained at 37° C. in an atmosphere of 3% O2, 4% CO2, 93% N2 and 95% relative humidity.
(§4) In order to determine the activity, the preparations are dissolved in DMSO, pre-diluted in the culture medium to a suitable starting concentration and subsequently titrated-out on to microtitre plates in the 2nd stage over 6-7 steps. After the addition of the parasite culture (0.7% parasitemia in 2.5% erythrocyte suspension) the test plates are incubated under the conditions given above for 72 h. The parasite growth in the different preparation concentrations is determined using [G-^3 H]-hypoxanthin incorporation compared to untreated control cultures on the same test plates. The 50% growth inhibition (IC50) is calculated according to logit regression analysis from the resulting dosage-activity curve.
(§5) The preparations are tested on at least one chloroquine-resistant and one chloroquine-sensitive Plasmodium falciparum strain. Additional sensitive and resistant strains are included for further characterization.

[2] = test system: human-pathogenic Plasmodium falciparum K1; test: Growth inhibition of Plasmodium falciparum in vitro, strain K1 (chloroquine-resistant), [G-3H]-hypoxanthin incorporation; type: cell-based; conditions: 72 h
Protocol: as §1, §2, §3, §4, §5

[3] = test system: Plasmodium berghei (strain ANKA); test: Activity against Plasmodium berghei in vivo, reduction of parasitemia in infected mice; conditions: for inhibition in vivo at 100 mg/kg / inhibition in vivo at 10 mg/kg: Plasmodium berghei, 48 h after treatment; for inhibition in vivo at 100 mg/kg / in vivo sc act. % (toxic): single dose 100 mg/kg; for inhibition in vivo at 10 mg/kg: single dose 10 mg/kg
Protocol: Test method for the determination of the activity against Plasmodium berghei in vivo
The preparations are tested on mice infected with malaria pathogens (Plasmodium berghei). Male albino mice (IBM:MORO(SPF), FUELLINSDORF) weighing about 25 g are used as the test animals. They are kept in climatized rooms at 21-22° C. in groups of 5 animals per cage. They receive ad libitum a diet feed with a low PABA content (NAFAG FUTTER" No. 9009 PAB-45, PABA content 45 mg/kg) and drinking water. On the first day of the test (D0) the test animals are infected with Plasmodium berghei (strain ANKA). For this there is used heparinized blood of a donor mouse with about 30% parasitemia, which is diluted with physiological saline such that it contains 10^8 parasitized erythrocytes per ml. 0.2 ml of this suspension is injected intravenously (i.v.) into the mice to be treated and into the control mice. In untreated control animals the parasitemia normally reaches 30-40% on the third day after the infection (D+3) and the test animals die between days +5 and +7.
The substances to be tested are dissolved or suspended in distilled water or in a mixture of 7% Tween 80, 3% alcohol (96%) and water. Usually, 0.25 ml of this solution or suspension is administered once subcutaneously and perorally to groups of 5 test animals. Treatment is effected 24 hours after the infection. 10 control animals are treated in the same manner with solvent or suspension medium per test.
All substances are tested in a first test in a single dosage of 100 or 10 mg/kg. Only those substances which in this test (10 mg/kg) have shown a parasitaemia reduction of more than 90% are used for the titration. Suitable dilutions of the test substance can be used to obtain an accurate titration of the activity.
48 hours after the treatment (D+3) blood smears are prepared from all animals using blood from tail veins and are stained with giemsa. The average erythrocyte infection rate (parasitemiea in %) in the control groups as well as in the groups which have been treated with the test compounds is determined by counting under a microscope. The difference in the average values of the infection rates of control group (100%) and treated groups is calculated and expressed as a percentage reduction (GI%). The ED50 or ED90 is determined mathematically by means of the JMP programme (nonlinear fit). The ED50 (ED90) in mg/kg is that dose which after single administration reduces the average erythrocyte infection rate by 50% (90%) in comparison to the control group.

[4] = po, perorally, read-out: in vivo po act. % (percentage reduction of the parasitemia)
[5] = sc, subcutaneously, read-out: in vivo sc act. % (percentage reduction of the parasitemia)

SMILES | IC50 [1] | IC50 [2] | inhibition in vivo at 100 mg/kg [3, 4] | inhibition in vivo at 100 mg/kg [3, 5] | inhibition in vivo at 10 mg/kg [3, 4] | in vivo sc act. % (toxic) ([3]; subcutaneously)
CO/C=C(/C(=O)OC)c1ccccc1/C=C/COC1CCCCO1 [Example 251, (E)-3-Methoxy-2-{(E)-2-[(R)- and (S)-3-(tetrahydro-pyran-2-yloxy}-propenyl]-phenyl}-acrylic acid methyl ester] | 64.9 µg/mL (≈ 195 µM) | 111 µg/mL (≈ 334 µM) | 40% | 74% | – | –
CO/N=C(/C(=O)OC)c1ccccc1C#CC#Cc1ccccc1C(F)(F)F [Example 207] | 10.8 µg/mL (≈ 28 µM) | 25.8 µg/mL (≈ 67 µM) | – | – | – | –
CO/C=C(/C(=O)OC)c1csc2cccc(CN(C)[C@@H](C)c3ccccc3)c12 [Example 222] | 22.6 µg/mL (≈ 57.1 µM) | 64.3 µg/mL (≈ 163 µM) | – | – | – | –
CO/C=C(/C(=O)OC)c1ccccc1/C=C/C=C/c1ccccc1Br [Example 203, Methyl (E)-2-[o-[(all-E)-4-(o-bromophenyl)-1,3-butadienyl]phenyl]-3-methoxyacrylate] | 0.07 µg/mL (≈ 0.175 µM) | 0.28 µg/mL (≈ 0.701 µM) | – | 90% | 76% | –
CO/C=C(/C(=O)OC)c1ccccc1/C=C/C=C/c1ccccc1C(F)(F)F [Example 185, Methyl (E)-3-methoxy-2-[o-[(all-E)-4-(alpha,alpha,alpha-trifluoro-tolyl)-1,3-butadienyl]-phenl]acrylate] | 0.06 µg/mL (≈ 0.154 µM) | 0.15 µg/mL (≈ 0.386 µM) | – | 100% | 99% | –
CO/C=C(/C(=O)OC)c1csc2cccc(COC(=O)Cc3ccc(Cl)cc3Cl)c12 [Example 233] | 29.5 µg/mL (≈ 63.4 µM) | 67.3 µg/mL (≈ 145 µM) | – | – | – | –
CO/C=C(/C(=O)OC)c1ccccc1CSc1c(F)c(F)c(F)c(F)c1F [Example 11] | 1.17 µg/mL (≈ 2.89 µM) | 4.9 µg/mL (≈ 12.1 µM) | 80% | – | – | tox
CON=C(C(=O)OC)c1ccccc1/C=C/C=C/c1ccccc1C(F)(F)F [Example 206, (Z)- or (E)-Methoxyimino-[2-[(1E,2E)-4-(2-trifluoromethylphenyl)-buta-1,3-dienyl]-phenyl]-acetic acid methyl ester] | 0.4 µg/mL (≈ 1.03 µM) | 1.4 µg/mL (≈ 3.6 µM) | 46% | 44% | – | –
CO/N=C(/C(=O)OC)c1ccccc1-c1ccc(-c2ccccc2C(F)(F)F)s1 [Example 217] | 23.7 µg/mL (≈ 56.5 µM) | 60.8 µg/mL (≈ 145 µM) | – | – | – | –
CO/C=C(/C(=O)OC)c1ccccc1/C=C/c1cc(OC)c(OC)cc1[N+](=O)[O-] [Example 126] | 1.2 µg/mL (≈ 3 µM) | 3.3 µg/mL (≈ 8.26 µM) | 79% | 76% | – | –
COC=C(C(=O)OC)c1ccccc1C=CC=Cc1ccc(C(F)(F)F)cc1C(F)(F)F [Example 199, (E)- or (Z)-2-[2-[4-(2,4-bis-trifluoromethyl-phenyl)-buta-1,3-dienyl]phenyl]-3-methoxy-acrylic acid methyl ester] | 0.06 µg/mL (≈ 0.131 µM) | 0.13 µg/mL (≈ 0.285 µM) | – | 100% | 100% | –
CO/C=C(/C(=O)OC)c1csc2c(C)cccc12 [Example 250] | 184 µg/mL (≈ 703 µM) | 550 µg/mL (≈ 2100 µM) | – | – | – | –
CO/C=C(/C(=O)OC)c1csc2cccc(/C=C/c3ccsc3)c12 [Example 243] | 6.7 µg/mL (≈ 18.8 µM) | 22.6 µg/mL (≈ 63.4 µM) | – | – | – | –
CO/C=C(/C(=O)OC)c1csc2cccc(COC(=O)/C=C/c3cccc(C(F)(F)F)c3)c12 [Example 236] | 44.2 µg/mL (≈ 92.8 µM) | 175 µg/mL (≈ 367 µM) | – | – | – | –
CO/C=C(/C(=O)OC)c1csc2cccc(CO/N=C(\C)c3cccc(C(F)(F)F)c3)c12 [Example 238] | 17.5 µg/mL (≈ 37.8 µM) | 40.9 µg/mL (≈ 88.2 µM) | – | – | – | –
CO/N=C(/C(=O)OC)c1ccccc1CO/N=C(\C)c1cc(C(F)(F)F)cc(C(F)(F)F)c1 [Example 111] | 1.6 µg/mL (≈ 3.36 µM) | 4.3 µg/mL (≈ 9.03 µM) | – | – | – | –
CO/C=C(/C(=O)OC)c1ccccc1/C=C/c1ccc(OC)c(OC)c1Cl [Example 136] | 1.04 µg/mL (≈ 2.67 µM) | 2.9 µg/mL (≈ 7.46 µM) | 40% | – | – | tox
CO/C=C(/C(=O)OC)c1ccccc1CCCCc1ccccc1C(F)(F)F [Example 210] | 0.85 µg/mL (≈ 2.17 µM) | 1.35 µg/mL (≈ 3.44 µM) | 82% | 99% | – | –
CO/C=C(/C(=O)OC)c1ccccc1CO/N=C(\C)c1cc(C(F)(F)F)cc(C(F)(F)F)c1 [Example 105] | 0.21 µg/mL (≈ 0.442 µM) | 1.01 µg/mL (≈ 2.12 µM) | – | – | – | –
CO/C=C(/C(=O)OC)c1ccccc1CCCCc1ccc(C(F)(F)F)cc1C(F)(F)F [Example 211] | 0.33 µg/mL (≈ 0.717 µM) | 1.34 µg/mL (≈ 2.91 µM) | – | 92% | 59% | –
CO/N=C(/C(=O)OC)c1ccccc1C#C/C=C/c1ccccc1C(F)(F)F [Example 209] | 3.21 µg/mL (≈ 8.29 µM) | 5.7 µg/mL (≈ 14.7 µM) | – | – | – | –
CO/C=C(/C(=O)OC)c1csc2cccc(/C=C/c3ccccc3)c12 [Example 241] | 1.4 µg/mL (≈ 3.99 µM) | 7.4 µg/mL (≈ 21.1 µM) | – | – | – | –
CO/N=C(/C(=O)OC)c1ccccc1CO/N=C(\C)c1cccc(C(F)(F)F)c1 [Example 110] | 20 µg/mL (≈ 49 µM) | 65.8 µg/mL (≈ 161 µM) | – | – | – | –
CO/C=C(/C(=O)OC)c1ccccc1COc1cnc2cc(Br)cc(C)c2n1 [Example 28] | 17.7 µg/mL (≈ 39.9 µM) | 19.1 µg/mL (≈ 43.1 µM) | – | – | – | –
CO/C=C(/C(=O)OC)c1ccccc1/C=C/CSc1ccccc1C(F)(F)F [Example 120] | 1.75 µg/mL (≈ 4.28 µM) | 2.51 µg/mL (≈ 6.15 µM) | 46% | 91% | – | –

From patent US6084120A, “β-Alkoxyacrylates against malaria” (Hoffmann-La Roche Inc., priority 1997, dated 2000)
